Where two headings read alike, the source gives them in different places.
Assays:
[1] = test system: IL-23-stimulated Kit225 T cells with STAT-dependent luciferase reporter; experiment: Kit225 T cell assay, STAT-dependent luciferase reporter, IL-23 stimulated; format: cell-based, human; conditions: read-out: IL-23 Kit225 Reporter, LE (IC50)
Experimental: (§1) Kit225 T cells with a stably-integrated STAT-dependent luciferase reporter were plated in RPMI (GIBCO) containing 10% heat-inactivated FBS (GIBCO) and 100 U/mL PenStrep (GIBCO). The cells were then stimulated with either 20 ng/mL human recombinant IL-23 or 200 U/mL human recombinant IFNα (PBL InterferonSource) for 5-6 hours. Luciferase expression was measured using the STEADY-GLO® Luciferase Assay System (PROMEGA®) according to the manufacturer's instructions.

[2] = test system: IFNα-stimulated Kit225 T cells with STAT-dependent luciferase reporter; experiment: Kit225 T cell assay, STAT-dependent luciferase reporter, IFNα stimulated; format: cell-based, human; conditions: 5-6 hours, read-out: IFNa Kit225 Reporter, LE (IC50)
Experimental: as §1

[3] = 20 ng/mL human recombinant IL-23, 5-6 hours
[4] = 200 U/mL human recombinant IFNα
[5] = Homo sapiens, KIT225, 20 ng/mL human recombinant IL-23, 5-6 hours
[6] = Homo sapiens, KIT225, 200 U/mL human recombinant IFNα

IC50 [1, 3] [nM] | IC50 [2, 4] [nM] | IC50 [1, 5] [nM] | IC50 [2, 6] [nM] | Compound
1180 | 240 |  |  | CNc1cc(Nc2cccn(-c3nc4ccccc4[nH]3)c2=O)nn2c(C(=O)NC3CC3)cnc12 [Example 223]
220 | 390 |  |  | CCNC(=O)c1cnc2c(NC)cc(Nc3cccn(C)c3=O)nn12 [Example 210]
280 | 240 |  |  | CNc1cc(Nc2cccn(-c3ccc(C(C)O)cc3)c2=O)nn2c(C(=O)NC3CC3)cnc12 (centres unmarked) [Example 135]
40 | 50 |  |  | CNc1cc(Nc2cc(F)cn(-c3ccc(C)nn3)c2=O)nn2c(C(=O)NC3CC3)cnc12 [Example 94]
160 | 40 |  |  | CNc1cc(Nc2ccnn(-c3cccc(C#N)c3)c2=O)nn2c(C(=O)N[C@@H]3C[C@@H]3F)cnc12 [Example 196]
280 | 520 |  |  | CNc1cc(Nc2cccn(-c3cccnn3)c2=O)nn2c(C(=O)NCC(C)C)cnc12 [Example 112]
70 | 100 |  |  | CNc1cc(Nc2cccn(-c3ccc(OC)nc3)c2=O)nn2c(C(=O)NC3CC3)cnc12 [Example 204]
290 | 140 |  |  | CNc1cc(Nc2cccn(-c3ccc(C(F)(F)F)cc3)c2=O)nn2c(C(=O)NC3(C#N)CC3)cnc12 [Example 137]
240 | 90 |  |  | CNc1cc(Nc2cccn(C3CCCCC3)c2=O)nn2c(C(=O)NC3CC3)cnc12 [Example 226]
110 | 40 |  |  | CNc1cc(Nc2cccn(-c3cccc(C)n3)c2=O)nn2c(C(=O)NC3CCC3)cnc12 [Example 47]
80 | 60 |  |  | CNc1cc(Nc2cccn(C)c2=O)nn2c(C(=O)NC3CCCC3)cnc12 [Example 208]
240 | 180 |  |  | CNc1cc(Nc2cccn(-c3ccc(F)nc3)c2=O)nn2c(C(=O)NC3CC3)cnc12 [Example 17]
260 | 180 |  |  | CNc1cc(Nc2cccn(-c3ncc(F)cn3)c2=O)nn2c(C(=O)NC3CCCC3)cnc12 [Example 172]
480 | 270 |  |  | CCNc1cc(Nc2cccn(C)c2=O)nn2c(C(=O)NC3CCC3)cnc12 [Example 232]
190 | 270 |  |  | CNc1cc(Nc2cc(F)cn(CC3CC3)c2=O)nn2c(C(=O)NC3CC3)cnc12 [Example 15]
 |  | 520 | 320 | CNc1cc(Nc2cccn(-c3ccccc3)c2=O)nn2c(C(=O)NC(CO)CCl)cnc12 (centres unmarked) [Example 4, N-(1-Chloro-3-hydroxypropan-2-yl)-8-(methylamino)-6-(2-oxo-1-phenyl-1,2-dihydropyridin-3-ylamino)imidazo[1,2-b]pyridazine-3-carboxamide]
320 | 90 |  |  | CCC(C)NC(=O)c1cnc2c(NC)cc(Nc3cccn(-c4cccnn4)c3=O)nn12 (centres unmarked) [Example 105]
 |  | 610 | 420 | CNc1cc(Nc2cccn(-c3cnccn3)c2=O)nn2c(C(=O)NC3CCC(O)C3(C)C)cnc12 (centres unmarked) [compound 259]
440 | 240 |  |  | CNc1cc(Nc2cccn(-c3ccncc3)c2=O)nn2c(C(=O)NC3CC3)cnc12 [Example 128]
60 | 530 |  |  | CNc1cc(Nc2cccn(-c3cncc(C)n3)c2=O)nn2c(C(=O)NCC(C)(C)CO)cnc12 [Example 238]
40 | 40 |  |  | CNc1cc(Nc2cccn(-c3cccc(C(C)(C)O)n3)c2=O)nn2c(C(=O)N[C@@H]3C[C@@H]3F)cnc12 [Example 82]
590 | 290 |  |  | CNc1cc(Nc2cc(F)cn(CC(C)(C)O)c2=O)nn2c(C(=O)NC3CC3)cnc12 [Example 121]
20 | 50 |  |  | CNc1cc(Nc2cccn(-c3cccc(C)n3)c2=O)nn2c(C(=O)N[C@@H]3C[C@@H]3F)cnc12 [Example 49]
 |  | 420 | 350 | CNc1cc(Nc2cccn(C3CCN(C(=O)C4CCCO4)CC3)c2=O)nn2c(C(=O)NC3CC3)cnc12 (centres unmarked) [Example 247]
80 | 60 |  |  | CNc1cc(Nc2cccn(-c3ccccc3F)c2=O)nn2c(C(=O)NC3(C#N)CC3)cnc12 [Example 156]
